This data set relates to Stage IIIb/IV NSCLC. How it is done: In both portions of the study, subjects received 150 mg of erlotinib orally once daily. […] Tumors were to be assessed every 6 weeks (±3 days) up to the first 24 weeks of the study, then every 12 weeks (±7 days) independent of treatment cycle.
An “HRG high” subject was defined as a subject with observed soluble HRG concentration of higher than 980 pg/mL, the Quartile 3 of the sample set. Soluble HRC concentration was measured by the improved ELISA method disclosed herein.
At the point of primary analysis, the treatment assignment for all subjects was unblinded to designated study personnel for analysis after data were reconciled and cleaned, and a snapshot of the clean database was created. To minimize potential bias, individual treatment assignment was not divulged to subjects or Investigators until study closure.
All efficacy analyses were performed on the full analysis set, which includes all subjects in the randomized analysis set who received at least one dose of randomized study medication. The primary efficacy endpoint was PFS. PFS is defined as the time from the date of randomization to the earlier of the dates of the first objective documentation of radiographic disease progression or death due to any cause. A subject who was alive with no objective documentation of (radiographic) disease progression by the data cut-off date was to be censored at the date of the last evaluable tumor assessment. The key secondary efficacy endpoint, overall survival, was defined as the time from the date of randomization to death due to any cause and was analyzed in the same manner as the primary efficacy endpoint PFS.
Kaplan-Meier curves were generated for PFS and used to calculate medians and 95% CIs for each treatment group.
The stratification factors included histology (Adenocarcinoma vs Non-Adenocarcinoma) and best response to prior therapy (CR/PR/SD vs PD). […] Cox's proportional hazards model with the same stratification factors used for the stratified log-rank test.
Unless otherwise indicated, tog-rank p-values and HRs for PFS and OS were based on the primary analysis adjusted for the stratification factors at randomization as described above.

The mark [1] stands for this setting: Placebo + erlotinib (N = 71), Enrolled/Randomized Analysis Set.
Where [2] appears, read: Placebo + erlotinib (N = 71), Full Analysis Set.

SMILES strings stand for the structures.

For the molecule `C#Cc1cccc(Nc2ncnc3cc(OCCOC)c(OCCOC)cc23)c1` [erlotinib, reference compound], under setting [1], the “On-Study Death” value was determined as 13 subjects, the “Primary Cause of On-Study Death: Adverse Event” value is 5 subjects, the “Primary Cause of On-Study Death: Disease Progression” value is 8 subjects and the “Primary Reason for Discontinuing Study Treatment: Death” value is 4 subjects. Moreover, the “Primary Reason for Discontinuing Study Treatment: Progressive Disease (Radiographic Progression)” value under setting [1] worked out at 50 subjects. Under setting [2], the “OS: Subjects (%) with events” value was 48 (67.6%) subjects (%), the “OS: Subjects (%) without events (censored)” value is reported as 23 (32.4%) subjects (%), the “PFS: Subjects (%) with events” value is given as 59 (83.1%) subjects (%) and the “PFS: Subjects (%) without events (censored)” value is on record as 12 (16.9%) subjects (%). Moreover, under “Placebo + erlotinib (N = 71), Full Analysis Set, Kaplan-Meier Estimate”, the “Progression-Free Survival, Time to event, Median” value is on record as 1.6 months. Besides, under “Placebo + erlotinib (N = 71), Full Analysis Set, Kaplan-Meier Estimate, preliminary”, the “Overall Survival, Time to event, Median” value is recorded as 7.2 months. In addition, the “number of subjects with the response being CR/PR” value (placebo + erlotinib) is given as 4 (5.6%) subjects (%).

Values taken from patent publication US12583938B2, “Protein biomarker and uses thereof” (Daiichi Sankyo Co., Ltd., priority 2013, dated 2026).
